Experimental data as given in PubChem BioAssay (NCI).
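96-well plates; 48 h exposure; 5 concentrations. Endpoints by linear interpolation between flanking doses. Not reached: highest tested concentration assigned. Definition used: TGI = concentration required for complete inhibition of growth.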

Columns and labels:
Experiment in all cases: inhibition of tumour cell growth, NCI panel, 48 h
UACC-62 melanoma = system: UACC-62 melanoma
M14 melanoma = system: M14 melanoma
MALME-3M melanoma = system: MALME-3M melanoma
K-562 leukemia = system: K-562 leukemia
SR leukemia = system: SR leukemia
CAKI-1 renal = system: CAKI-1 renal
OVCAR-5 ovarian = system: OVCAR-5 ovarian
HCC-2998 colon = system: HCC-2998 colon
SK-MEL-28 melanoma = system: SK-MEL-28 melanoma
HL-60(TB) leukemia = system: HL-60(TB) leukemia

CN1CCOC1c1ccccc1O (stereo not given)
TGI (UACC-62 melanoma): > 100 µM
TGI (M14 melanoma): > 100 µM
TGI (MALME-3M melanoma): > 100 µM
TGI (K-562 leukemia): > 100 µM
TGI (SR leukemia): > 100 µM
TGI (CAKI-1 renal): > 100 µM
TGI (OVCAR-5 ovarian): > 100 µM

N[C@@H](Cc1ccccc1)C(=O)N1CCC[C@@H]1P(=O)(Oc1ccccc1)Oc1ccccc1
TGI (UACC-62 melanoma): > 100 µM
TGI (M14 melanoma): > 100 µM
TGI (MALME-3M melanoma): > 100 µM
TGI (K-562 leukemia): > 100 µM
TGI (HCC-2998 colon): > 100 µM
TGI (SK-MEL-28 melanoma): > 100 µM
TGI (CAKI-1 renal): > 100 µM
TGI (HL-60(TB) leukemia): > 100 µM
TGI (OVCAR-5 ovarian): > 100 µM

O=[N+]([O-])C(=C(Nc1cccc2cccnc12)Nc1cccc2cccnc12)C(Cl)=C(Cl)Cl
TGI (UACC-62 melanoma): > 100 µM
TGI (M14 melanoma): > 100 µM
TGI (MALME-3M melanoma): > 100 µM
TGI (K-562 leukemia): > 100 µM
TGI (HCC-2998 colon): > 100 µM
TGI (SR leukemia): > 100 µM
TGI (SK-MEL-28 melanoma): > 100 µM
TGI (CAKI-1 renal): > 92.2 µM
TGI (OVCAR-5 ovarian): > 100 µM

Cc1cccc(C)c1NC(=O)C(Cc1c[nH]c2ccccc12)NC(=O)OCc1ccccc1 (stereo not given)
TGI (UACC-62 melanoma): 41.3 µM
TGI (M14 melanoma): 31.7 µM
TGI (MALME-3M melanoma): 52.8 µM
TGI (K-562 leukemia): > 100 µM
TGI (SR leukemia): 85.7 µM
TGI (SK-MEL-28 melanoma): 57.1 µM
TGI (CAKI-1 renal): 50.2 µM
TGI (HL-60(TB) leukemia): 44.3 µM
TGI (OVCAR-5 ovarian): 51.6 µM

O=C(O)CN1CCNCCN(CC(=O)O)CCN(CC(=O)O)CCNCC1
TGI (UACC-62 melanoma): > 100 µM
TGI (M14 melanoma): > 100 µM
TGI (MALME-3M melanoma): > 100 µM
TGI (K-562 leukemia): > 100 µM
TGI (SR leukemia): > 100 µM
TGI (SK-MEL-28 melanoma): > 100 µM
TGI (CAKI-1 renal): > 100 µM
TGI (HL-60(TB) leukemia): 64.6 µM
TGI (OVCAR-5 ovarian): > 100 µM

C=C(C(=O)OCC)C(=O)OCC
TGI (UACC-62 melanoma): > 100 µM
TGI (M14 melanoma): > 100 µM
TGI (MALME-3M melanoma): > 100 µM
TGI (K-562 leukemia): > 100 µM
TGI (HCC-2998 colon): > 100 µM
TGI (SR leukemia): > 100 µM
TGI (SK-MEL-28 melanoma): > 100 µM
TGI (CAKI-1 renal): > 100 µM
TGI (OVCAR-5 ovarian): > 100 µM

CCOS(C)(=O)=O
TGI (UACC-62 melanoma): > 100 µM
TGI (M14 melanoma): > 100 µM
TGI (MALME-3M melanoma): > 100 µM
TGI (K-562 leukemia): > 100 µM
TGI (HCC-2998 colon): > 100 µM
TGI (SK-MEL-28 melanoma): > 100 µM
TGI (CAKI-1 renal): > 100 µM
TGI (HL-60(TB) leukemia): > 100 µM
TGI (OVCAR-5 ovarian): > 100 µM

S=C1NC2=C(CSC/C2=C\c2cccc(Br)c2)C(c2cccc(Br)c2)N1 (stereo not given)
TGI (UACC-62 melanoma): > 100 µM
TGI (M14 melanoma): > 100 µM
TGI (MALME-3M melanoma): > 100 µM
TGI (K-562 leukemia): > 100 µM
TGI (HCC-2998 colon): > 100 µM
TGI (SK-MEL-28 melanoma): > 100 µM
TGI (CAKI-1 renal): > 100 µM
TGI (HL-60(TB) leukemia): > 100 µM
TGI (OVCAR-5 ovarian): > 100 µM

O=C1NC(N2CCOCC2)=N/C1=C\c1ccco1
TGI (UACC-62 melanoma): > 100 µM
TGI (M14 melanoma): > 100 µM
TGI (HCC-2998 colon): > 100 µM
TGI (SR leukemia): > 100 µM
TGI (SK-MEL-28 melanoma): > 100 µM
TGI (CAKI-1 renal): > 100 µM
TGI (HL-60(TB) leukemia): > 100 µM
TGI (OVCAR-5 ovarian): > 100 µM

CC1(C)[C@@H]2CC[C@@]1(C)CN(CCC[N+](C)(C)C)C2
TGI (UACC-62 melanoma): > 100 µM
TGI (M14 melanoma): > 100 µM
TGI (MALME-3M melanoma): > 100 µM
TGI (K-562 leukemia): > 100 µM
TGI (HCC-2998 colon): > 100 µM
TGI (SR leukemia): > 100 µM
TGI (SK-MEL-28 melanoma): > 100 µM
TGI (CAKI-1 renal): > 100 µM
TGI (OVCAR-5 ovarian): > 100 µM

Nc1ccc(N=Nc2c(S(=O)(=O)O)cc3ccccc3c2S(=O)(=O)O)cc1
TGI (UACC-62 melanoma): > 100 µM
TGI (M14 melanoma): > 100 µM
TGI (MALME-3M melanoma): > 100 µM
TGI (K-562 leukemia): > 100 µM
TGI (HCC-2998 colon): > 100 µM
TGI (SR leukemia): > 100 µM
TGI (SK-MEL-28 melanoma): > 100 µM
TGI (CAKI-1 renal): > 100 µM
TGI (OVCAR-5 ovarian): > 100 µM

O=C(NCP(=O)(Oc1ccccc1)Oc1ccccc1)OCc1ccccc1
TGI (UACC-62 melanoma): > 100 µM
TGI (M14 melanoma): > 100 µM
TGI (MALME-3M melanoma): > 100 µM
TGI (K-562 leukemia): > 100 µM
TGI (SR leukemia): > 100 µM
TGI (SK-MEL-28 melanoma): > 100 µM
TGI (CAKI-1 renal): > 100 µM
TGI (HL-60(TB) leukemia): > 100 µM
TGI (OVCAR-5 ovarian): > 100 µM
